The nature of data set [1]: Inhibition of HCMV recombinant DNA polymerase expressed in baculovirus infected SF9 cells after 12 mins by scintillation proximity assay. The arrangement: species or system Human betaherpesvirus 5. (In general: SPA uses beads or plates that emit light when radiolabelled molecules are held near them.)
For data set [2], the system named is Human betaherpesvirus 5. In words: Antiviral activity against Human cytomegalovirus infected in HFF cells by plaque reduction assay. Type of data set: functional, organism-based. Conditions: Human betaherpesvirus 5, HFF. A general note: Plaques are areas of infected cells; plaque reduction assays count them against a control.
Data set [3] in a line: Cytotoxicity against HFF cells after 3 days by […] dye uptake assay. The data set is classed as cell-based. Conditions: human.
Data set [4] in a line: Inhibition of Varicella zoster virus recombinant DNA polymerase expressed in baculovirus infected SF9 cells after 12 mins by scintillation proximity assay. The arrangement: species or system Human alphaherpesvirus 3.
The test system of data set [5] is Human alphaherpesvirus 3. In words: Antiviral activity against Varicella zoster virus infected in HFF cells by plaque reduction assay. Type of data set: functional, organism-based. The note with it: Human alphaherpesvirus 3, HFF.
In data set [6] the target is T1, DNA polymerase alpha catalytic subunit (Homo sapiens, UniProt P09884).
T1 sequence (P09884 whole entry): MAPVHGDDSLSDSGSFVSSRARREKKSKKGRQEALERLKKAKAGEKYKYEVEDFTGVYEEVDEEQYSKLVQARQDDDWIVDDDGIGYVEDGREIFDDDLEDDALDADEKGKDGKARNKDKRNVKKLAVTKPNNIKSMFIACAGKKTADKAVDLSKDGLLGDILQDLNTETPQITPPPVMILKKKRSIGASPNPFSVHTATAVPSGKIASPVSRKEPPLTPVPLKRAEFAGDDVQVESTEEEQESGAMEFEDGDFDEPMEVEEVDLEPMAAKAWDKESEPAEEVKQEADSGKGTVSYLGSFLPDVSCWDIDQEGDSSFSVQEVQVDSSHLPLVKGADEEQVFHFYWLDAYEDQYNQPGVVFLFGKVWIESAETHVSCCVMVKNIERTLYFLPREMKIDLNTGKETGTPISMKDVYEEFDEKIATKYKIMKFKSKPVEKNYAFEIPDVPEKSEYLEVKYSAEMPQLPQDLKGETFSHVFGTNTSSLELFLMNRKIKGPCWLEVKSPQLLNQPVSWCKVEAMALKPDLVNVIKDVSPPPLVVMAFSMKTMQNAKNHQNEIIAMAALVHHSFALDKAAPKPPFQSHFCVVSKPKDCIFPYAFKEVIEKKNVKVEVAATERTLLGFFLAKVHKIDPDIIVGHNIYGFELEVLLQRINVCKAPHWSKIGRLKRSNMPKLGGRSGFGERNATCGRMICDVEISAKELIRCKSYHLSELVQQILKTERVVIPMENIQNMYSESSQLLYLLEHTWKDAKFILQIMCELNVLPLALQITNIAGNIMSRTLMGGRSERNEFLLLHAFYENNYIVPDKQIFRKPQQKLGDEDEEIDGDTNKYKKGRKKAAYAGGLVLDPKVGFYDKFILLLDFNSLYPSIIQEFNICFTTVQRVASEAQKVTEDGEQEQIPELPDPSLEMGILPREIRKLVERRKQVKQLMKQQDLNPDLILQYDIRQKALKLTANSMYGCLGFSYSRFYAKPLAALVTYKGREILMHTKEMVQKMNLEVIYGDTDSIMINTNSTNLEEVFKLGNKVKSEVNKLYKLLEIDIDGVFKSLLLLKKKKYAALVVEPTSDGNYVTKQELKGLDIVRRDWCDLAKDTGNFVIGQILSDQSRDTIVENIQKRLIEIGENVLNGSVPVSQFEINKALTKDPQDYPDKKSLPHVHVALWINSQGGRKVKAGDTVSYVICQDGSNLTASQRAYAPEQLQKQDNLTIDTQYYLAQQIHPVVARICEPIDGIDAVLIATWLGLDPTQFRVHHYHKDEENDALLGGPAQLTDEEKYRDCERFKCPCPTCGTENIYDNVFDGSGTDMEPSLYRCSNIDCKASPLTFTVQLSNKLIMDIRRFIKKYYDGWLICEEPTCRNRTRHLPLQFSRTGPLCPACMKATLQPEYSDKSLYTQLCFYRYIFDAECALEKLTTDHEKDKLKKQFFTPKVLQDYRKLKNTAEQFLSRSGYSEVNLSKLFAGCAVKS
In words: Inhibition of human recombinant DNA polymerase alpha expressed in baculovirus infected SF9 cells after 12 mins by scintillation proximity assay.

Data set [7] in a line: Aqueous solubility of the compound. The data set is classed as physicochemical.

This passage reports IC50, CC50 and solubility results from ChEMBL document CHEMBL1155400, “The design and development of 2-aryl-2-hydroxy ethylamine substituted 1H,7H-pyrido[1,2,3-de]quinoxaline-6-carboxamides as inhibitors of human cytomegalovirus polymerase” (Bioorg Med Chem Lett, 2010).

Broadly, the IC50 is the concentration at which inhibition is half-maximal. Usually CC50 stands for the concentration at which the toxic effect on the cells reaches its halfway point. Read a high CC50 as lower toxicity to the cells. A word on the solubility: it is the concentration that dissolves in the medium under given conditions. High values mean a readily soluble substance, low ones a poorly soluble substance.

Converted amounts (≈) assume the structure as drawn.

Turning to `O=C(NCc1ccc(Cl)cc1)c1cn2c3c(cc(CN4CCOCC4)cc3c1=O)N(CCCN1CCOCC1)C(=O)C2`, the IC50 in data set [1] is 4410 nM.

With `CN(Cc1cc2c3c(c1)c(=O)c(C(=O)NCc1ccc(Cl)cc1)cn3CC(=O)N2C)C[C@@H](O)c1cc2ccccc2o1`, the IC50 in data set [1] was 4 nM; in data set [2], 1 nM; in data set [4] it was 29 nM; in data set [5], 4 nM; in data set [6] it was above 5000 nM. In data set [3], this compound came in with a CC50 at 72 h above 15000 nM. Further, the concentration in solution in data set [7] (solubility) came to 0.94 µg/mL (≈ 1.61 µM).

As for `CN(Cc1cc2c3c(c1)c(=O)c(C(=O)NCc1ccc(Cl)cc1)cn3CC(=O)N2C)C[C@H](O)c1cc2ccccc2o1`, the IC50 in data set [1] was determined as 180 nM; in data set [2] it was 90 nM. In data set [3], this compound gave a CC50 at 72 h above 15000 nM.

Turning to `CN(Cc1cc2cc(CCO)n3cc(C(=O)NCc4ccc(Cl)cc4)c(=O)c(c1)c23)C[C@@H](O)c1cnccn1`, the figures for the IC50 in data set [1] and in data set [2] were 14 nM and 10 nM, respectively. Moreover, the solubility in data set [7] turned out to be 17 µg/mL (≈ 31.1 µM).

Turning to `CN(Cc1cc2c3c(c1)c(=O)c(C(=O)NCc1ccc(Cl)cc1)cn3CC(=O)N2C)C[C@@H](O)c1ccsc1`, the IC50 was determined as 190 nM in data set [1] and 100 nM in data set [2]. The compound further returned a cytotoxic concentration (CC50) at 72 h in data set [3] above 15000 nM.

Take `CN(Cc1cc2c3c(c1)c(=O)c(C(=O)NCc1ccc(Cl)cc1)cn3CC(=O)N2C)C[C@@H](O)c1ccccc1`: the IC50 turned out to be 130 nM in data set [1] and 100 nM in data set [2]. In addition, the CC50 at 72 h in data set [3] is above 15000 nM.

On to `CN(Cc1cc2c3c(c1)c(=O)c(C(=O)NCc1ccc(Cl)cc1)cn3CC(=O)N2C)C[C@H](O)c1ccccc1`, for which, in data set [1], the IC50 was 9160 nM.

`CN(Cc1cc2c3c(c1)c(=O)c(C(=O)NCc1ccc(Cl)cc1)cn3CC(=O)N2C)C[C@@H](O)c1ccccn1`: the IC50 in data set [1] is 300 nM; in data set [2], 20 nM. In data set [3], the CC50 at 72 h was above 15000 nM.

In the case of `CN(Cc1cc2c3c(c1)c(=O)c(C(=O)NCc1ccc(Cl)cc1)cn3CC(=O)N2C)C[C@H](O)c1ccccn1`, in data set [1], the IC50 came out at 5250 nM.

Take `CN(Cc1cc2c3c(c1)c(=O)c(C(=O)NCc1ccc(Cl)cc1)cn3CC(=O)N2C)C[C@@H](O)c1cccnc1`: the results for the IC50 in data set [1] and in data set [2] were 150 nM and 10 nM, respectively. For the same compound, in data set [3], the half-maximal cytotoxic concentration (CC50) at 72 h is above 15000 nM.

Take `CN(Cc1cc2c3c(c1)c(=O)c(C(=O)NCc1ccc(Cl)cc1)cn3CC(=O)N2C)C[C@H](O)c1cccnc1`: the IC50 in data set [1] is 4550 nM.

In the case of `CN(Cc1cc2c3c(c1)c(=O)c(C(=O)NCc1ccc(Cl)cc1)cn3CC(=O)N2C)C[C@@H](O)c1ccco1`, the IC50 in data set [1] was 110 nM; in data set [2], 10 nM. The CC50 at 72 h in data set [3] was above 15000 nM.

For the compound `CN(Cc1cc2c3c(c1)c(=O)c(C(=O)NCc1ccc(Cl)cc1)cn3CC(=O)N2C)C[C@H](O)c1ccco1`, in data set [1], the IC50 was determined as 4930 nM.

With `CN(Cc1cc2c3c(c1)c(=O)c(C(=O)NCc1ccc(Cl)cc1)cn3CC(=O)N2C)C[C@H](O)c1ccsc1`, in data set [1], the IC50 was 5720 nM.

For `CN(Cc1cc2c3c(c1)c(=O)c(C(=O)NCc1ccc(Cl)cc1)cn3CC(=O)N2C)C[C@@H](O)c1nccs1`, the concentration for half-maximal inhibition (IC50) in data set [1] turned out to be 490 nM; in data set [2] it was 100 nM.

Consider `CN(Cc1cc2c3c(c1)c(=O)c(C(=O)NCc1ccc(Cl)cc1)cn3CC(=O)N2C)C[C@@H](O)c1cnccn1`, for which the IC50 in data set [1] stood at 260 nM; in data set [2], 200 nM.

Take `CN(Cc1cc2c3c(c1)c(=O)c(C(=O)NCc1ccc(Cl)cc1)cn3CC(=O)N2C)C[C@H](O)c1cnccn1`: the IC50 in data set [1] worked out at 7700 nM.

Regarding `O=C(NCc1ccc(Cl)cc1)c1cn2c3c(cc(CN4CCOCC4)cc3c1=O)N(CCCO)C(=O)C2`, the 50% inhibitory concentration (IC50) in data set [1] stood at 1840 nM.

As for `CN1C(=O)Cn2cc(C(=O)NCc3ccc(Cl)cc3)c(=O)c3cc(CN4CCOCC4)cc1c32`, the IC50 is 620 nM in data set [1]; 100 nM in data set [2]; 180 nM in data set [4]; 20 nM in data set [5]; above 5000 nM in data set [6]. This compound registered a solubility in data set [7] of 8.6 µg/mL (≈ 17.9 µM).

For the compound `CCN1C(=O)Cn2cc(C(=O)NCc3ccc(Cl)cc3)c(=O)c3cc(CN4CCOCC4)cc1c32`, in data set [1], the IC50 was determined as 1280 nM.

Consider `O=C(NCc1ccc(Cl)cc1)c1cn2c3c(cc(CN4CCOCC4)cc3c1=O)N(CCO)C(=O)C2`, for which the figures for the concentration for half-maximal inhibition (IC50) in data set [1] and in data set [2] were 830 nM and 700 nM, respectively.

In the case of `CN(Cc1cc2c(=O)c(C(=O)NCc3ccc(Cl)cc3)cn(C)c2s1)C[C@@H](O)c1ccco1`, the IC50 in data set [1] was found to be 35 nM; in data set [2], 7 nM. This compound displayed a solubility in data set [7] of 0.19 µg/mL (≈ 0.391 µM).

`CN(Cc1cc2c3c(c1)c(=O)c(C(=O)NCc1ccc(Cl)cc1)cn3CC(=O)N2C)C[C@H](O)c1nccs1`: the IC50 in data set [1] was determined as 6200 nM.

In the case of `Cn1cc(C(=O)NCc2ccc(Cl)cc2)c(=O)c2cc(CN3CCOCC3)ccc21`, the IC50 in data set [1] worked out at 690 nM; in data set [2] it was 300 nM.

For `Cn1cc(C(=O)NCc2ccc(Cl)cc2)c(=O)c2cc(CCCO)sc21`, the IC50 in data set [1] was 400 nM; in data set [2] it was 600 nM.

Turning to `CN(Cc1cc2c(=O)c(C(=O)NCc3ccc(Cl)cc3)cn(C)c2o1)C[C@@H](O)c1ccco1`, the IC50 came to 76 nM in data set [1] and 26 nM in data set [2].

For the compound `CN(Cc1cc2c3c(c1)c(=O)c(C(=O)NCc1ccc(Cl)cc1)cn3CC(=O)N2C)CC(O)c1ccc2ccccc2n1` (racemic), the half-inhibitory concentration (IC50) in data set [1] is 42 nM. Besides, the CC50 at 72 h in data set [3] was above 15000 nM.

For `CN(Cc1cc2c3c(c1)c(=O)c(C(=O)NCc1ccc(Cl)cc1)cn3CC(=O)N2C)CC(O)c1csc2ccccc12` (racemic), the figures for the IC50 in data set [1] and in data set [2] were 97 nM and 100 nM, respectively. In data set [3], this compound gave a CC50 at 72 h above 15000 nM.

Take `CN(Cc1cc2c3c(c1)c(=O)c(C(=O)NCc1ccc(Cl)cc1)cn3CC(=O)N2C)CC(O)c1cc2ccccc2o1` (racemic): the IC50 in data set [1] amounted to 8 nM. Moreover, the CC50 at 72 h in data set [3] is above 15000 nM.

The compound `Nc1nc2c(ncn2COCCO)c(=O)[nH]1` [ACYCLOVIR] registered an IC50 in data set [2] of 20000 nM.
